Laboratory results as given in ChEMBL document CHEMBL1201862, “PubChem BioAssay data set” (2004).
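Following 48 hours of exposure in 96-well plates, responses at five concentrations were used to interpolate endpoints linearly. Here, GI50 denotes the concentration required for 50% inhibition of growth.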 Activity calls are given as the source filed them. Rule as the data show it: active = GI50 up to about 1.1 µM and inactive = higher.

Experiments:
Assay in all cases: inhibition of tumour cell growth, NCI panel, 48 h
K562 = test system: K562
Hs-578T = test system: Hs-578T
UACC-62 = test system: UACC-62
MDA-N = test system: MDA-N
OVCAR-5 = test system: OVCAR-5
SK-MEL-28 = test system: SK-MEL-28
MOLT-4 = test system: MOLT-4
RPMI-8226 = test system: RPMI-8226
SW-620 = test system: SW-620
UO-31 = test system: UO-31
M14 = test system: M14
TK-10 = test system: TK-10
786-0 = test system: 786-0
SF-295 = test system: SF-295
ACHN = test system: ACHN
LOX IMVI = test system: LOX IMVI
HT-29 = test system: HT-29
HOP-62 = test system: HOP-62
A549 = test system: A549
A498 = test system: A498
KM12 = test system: KM12
NCI/ADR-RES = test system: NCI/ADR-RES
HCT-116 = test system: HCT-116
MDA-MB-435 = test system: MDA-MB-435
MDA-MB-231 = test system: MDA-MB-231
CCRF-CEM = test system: CCRF-CEM
DU-145 = test system: DU-145
SK-MEL-5 = test system: SK-MEL-5
NCI-H522 = test system: NCI-H522
NCI-H226 = test system: NCI-H226
SK-MEL-2 = test system: SK-MEL-2
HOP-92 = test system: HOP-92
COLO 205 = test system: COLO 205
SK-OV-3 = test system: SK-OV-3
Malme-3M = test system: Malme-3M
OVCAR-3 = test system: OVCAR-3
MCF7 = test system: MCF7
OVCAR-8 = test system: OVCAR-8
HCT-15 = test system: HCT-15
SNB-75 = test system: SNB-75
SNB-19 = test system: SNB-19
PC-3 = test system: PC-3
SF-268 = test system: SF-268
U-251 = test system: U-251
SN12C = test system: SN12C
EKVX = test system: EKVX
SR = test system: SR
IGROV-1 = test system: IGROV-1
NCI-H23 = test system: NCI-H23
RXF 393 = test system: RXF 393
HL-60 = test system: HL-60
SF-539 = test system: SF-539
CAKI-1 = test system: CAKI-1
OVCAR-4 = test system: OVCAR-4
UACC-257 = test system: UACC-257
NCI-H460 = test system: NCI-H460
T47D = test system: T47D
HCC 2998 = test system: HCC 2998

## O=C1/C(=C/c2ccc(Cl)cc2)NC(=S)N1CN1CCCCC1
K562
  GI50: 34 µM (inactive)
Hs-578T
  GI50: 21.5 µM (inactive)
UACC-62
  GI50: 13.1 µM (inactive)
MDA-N
  GI50: 63 µM (inactive)
OVCAR-5
  GI50: 37.5 µM (inactive)
SK-MEL-28
  GI50: 61.2 µM (inactive)
MOLT-4
  GI50: 30.2 µM (inactive)
RPMI-8226
  GI50: 20 µM (inactive)
SW-620
  GI50: 20.7 µM (inactive)
UO-31
  GI50: 28.1 µM (inactive)
M14
  GI50: 35.1 µM (inactive)
TK-10
  GI50: 39 µM (inactive)
786-0
  GI50: 30.2 µM (inactive)
SF-295
  GI50: 36.9 µM (inactive)
ACHN
  GI50: 24.6 µM (inactive)
LOX IMVI
  GI50: 37.8 µM (inactive)
HT-29
  GI50: 15.8 µM (inactive)
HOP-62
  GI50: 87.9 µM (inactive)
A549
  GI50: 34.1 µM (inactive)
A498
  GI50: 61.5 µM (inactive)
KM12
  GI50: 38.7 µM (inactive)
NCI/ADR-RES
  GI50: 19.3 µM (inactive)
HCT-116
  GI50: 34.4 µM (inactive)
MDA-MB-435
  GI50: 45.5 µM (inactive)
MDA-MB-231
  GI50: 49.9 µM (inactive)
CCRF-CEM
  GI50: 17.8 µM (inactive)
DU-145
  GI50: 45.8 µM (inactive)
SK-MEL-5
  GI50: 31 µM (inactive)
NCI-H522
  GI50: 18 µM (inactive)
NCI-H226
  GI50: 32.3 µM (inactive)
SK-MEL-2
  GI50: 73.1 µM (inactive)
HOP-92
  GI50: 50.5 µM (inactive)
COLO 205
  GI50: 28 µM (inactive)
SK-OV-3
  GI50: 63.4 µM (inactive)
Malme-3M
  GI50: 21.5 µM (inactive)
OVCAR-3
  GI50: 36.7 µM (inactive)
MCF7
  GI50: 29.2 µM (inactive)
OVCAR-8
  GI50: 36.7 µM (inactive)
HCT-15
  GI50: 22.6 µM
SNB-75
  GI50: 36.3 µM (inactive)
SNB-19
  GI50: 17.7 µM (inactive)
PC-3
  GI50: 48.4 µM (inactive)
SF-268
  GI50: 20.5 µM (inactive)
U-251
  GI50: 47.2 µM (inactive)
SN12C
  GI50: 40.6 µM (inactive)
EKVX
  GI50: 28.2 µM (inactive)
SR
  GI50: 34.8 µM (inactive)
IGROV-1
  GI50: 33.8 µM (inactive)
NCI-H23
  GI50: 37.2 µM (inactive)

## COc1ccc([I+]c2ccc(OC)cc2)cc1
K562
  GI50: 21.1 µM (inactive)
Hs-578T
  GI50: > 100 µM (inactive)
UACC-62
  GI50: > 100 µM (inactive)
OVCAR-5
  GI50: > 100 µM (inactive)
SK-MEL-28
  GI50: 73.6 µM (inactive)
RXF 393
  GI50: > 100 µM (inactive)
MOLT-4
  GI50: > 100 µM (inactive)
HL-60
  GI50: 27 µM (inactive)
RPMI-8226
  GI50: 44.1 µM (inactive)
SW-620
  GI50: > 91.8 µM (inactive)
UO-31
  GI50: > 100 µM (inactive)
M14
  GI50: 54.8 µM (inactive)
SF-539
  GI50: > 78.3 µM (inactive)
TK-10
  GI50: > 100 µM (inactive)
786-0
  GI50: 50.7 µM (inactive)
SF-295
  GI50: 30 µM (inactive)
ACHN
  GI50: > 100 µM (inactive)
LOX IMVI
  GI50: 28.6 µM (inactive)
CAKI-1
  GI50: > 100 µM (inactive)
HT-29
  GI50: 39 µM (inactive)
HOP-62
  GI50: 12.1 µM (inactive)
A549
  GI50: 1.87 µM (inactive)
OVCAR-4
  GI50: > 75.2 µM (inactive)
A498
  GI50: > 100 µM (inactive)
KM12
  GI50: 28.9 µM (inactive)
UACC-257
  GI50: 11.6 µM (inactive)
NCI/ADR-RES
  GI50: > 100 µM (inactive)
NCI-H460
  GI50: 4.47 µM (inactive)
MDA-MB-435
  GI50: > 56.5 µM (inactive)
T47D
  GI50: > 95.7 µM (inactive)
MDA-MB-231
  GI50: > 100 µM (inactive)
CCRF-CEM
  GI50: 74.5 µM (inactive)
DU-145
  GI50: 99.5 µM (inactive)
SK-MEL-5
  GI50: 5.75 µM (inactive)
NCI-H522
  GI50: > 61.1 µM (inactive)
NCI-H226
  GI50: 32.7 µM (inactive)
HCC 2998
  GI50: > 100 µM (inactive)
SK-MEL-2
  GI50: > 100 µM (inactive)
HOP-92
  GI50: > 100 µM (inactive)
COLO 205
  GI50: 60.5 µM (inactive)
SK-OV-3
  GI50: > 100 µM (inactive)
Malme-3M
  GI50: 20.2 µM (inactive)
OVCAR-3
  GI50: 26.7 µM (inactive)
MCF7
  GI50: 46.7 µM (inactive)
OVCAR-8
  GI50: 22.1 µM (inactive)
HCT-15
  GI50: > 22.2 µM
SNB-75
  GI50: 28.9 µM (inactive)
SNB-19
  GI50: 96.8 µM (inactive)
PC-3
  GI50: > 60 µM (inactive)
SF-268
  GI50: > 84.5 µM (inactive)
U-251
  GI50: 34 µM (inactive)
SN12C
  GI50: 40.8 µM (inactive)
EKVX
  GI50: > 75 µM (inactive)
SR
  GI50: > 50.5 µM (inactive)
IGROV-1
  GI50: > 66.8 µM (inactive)
NCI-H23
  GI50: 13 µM (inactive)

## C[C@H](CCC(=O)O)[C@H]1CC[C@H]2[C@@H]3CC[C@@H]4C[C@H](O)CC[C@]4(C)[C@H]3CC[C@]12C [LITHOCHOLIC ACID]
A498
  GI50: > 100 µM (inactive)

## C[C@@H]1O[C@@H](O[C@H]2C[C@@H](O)[C@]3(CO)[C@H]4[C@H](O)C[C@]5(C)[C@@H](C6=CC(=O)OC6)CC[C@]5(O)[C@@H]4CC[C@]3(O)C2)[C@H](O)[C@H](O)[C@H]1O [OUABAIN]
CCRF-CEM
  GI50: 21.1 µM (inactive)
SNB-75
  GI50: 0.0162 µM (active)
